Test [1] deals with T1, EGFR L858R/T790M (Homo sapiens, UniProt P00533, L858R/T790M).
T1 construct: Kinases domain of EGFR WT and EGFR L858R/T790M were expressed; made in house; host or cells: baculovirus expression system (Bac-to-Bac)
Briefly: ELISA-based EGFR-TK kinase assay, EGFR L858R/T790M. It is filed as biochemical. The settings on record: for IC50 / inhibitory activity against EGFR tyrosine kinases (in words): ELISA; for IC50: 10 μmol/L ATP solution, 37°C 1 h, mean ± SD of at least two determinations, read-out: EGFR tyrosine kinase IC50, EGFR T790M/L858R; for inhibitory activity against EGFR tyrosine kinases (in words): EGFR WT and EGFR L858R/T790M; for selectivity for EGFR L858R/T790M over WT EGFR (in words): EGFR L858R/T790M versus WT EGFR. The method, then:
(§1) Kinases domain of EGFR WT and EGFR L858R/T790M were expressed using the Bac-to-Bac™ baculo virus expression system (Invitrogen, Carlsbad, CA, USA) and purified in Ni-NTA columns (QIAGEN Inc., Valencia, CA, USA). The kinase activity was evaluated with enzyme-linked immunosorbent assay (ELISA). Briefly, 20 μg/mL Poly (Glu, Tyr) 4:1 (Sigma, St. Louis, MO) was precoated in 96-well ELISA plates as substrate. After adding 50 μL of 10 μmol/L ATP solution which was diluted in kinase reaction buffer (50 mM HEPES pH 7.4, 20 mM MgCl2, 0.1 mM MnCl2, 0.2 mM Na3VO4, 1 mM DTT), the plate was treated with 1 μL of indicated concentrations of compounds (dissolved in DMSO) per well. Experiments at each concentration were performed in duplicate. Reaction was initiated by adding tyrosine kinase diluted in kinase reaction buffer. After incubation at 37°C for 1 h, the wells were washed three times with phosphate buffered saline (PBS) containing 0.1% Tween 20 (T-PBS). One hundred microliters of anti-phosphotyrosine (PY99) antibody (1:1,000, Santa Cruz Biotechnology, Santa Cruz, CA) diluted in T-PBS containing 5 mg/mL BSA was added and the plate was incubated at 37°C for 30 min. After the plate was washed three times, 100 μL horseradish peroxidase-conjugated goat anti-mouse IgG (1:2,000, Calbiochem, SanDiego, CA) was added and the plate was incubated at 37°C for 30 min. The plate was washed, added with 100 μL citrate buffer (0.1 M, pH 5.5) containing 0.03% H2O2. Then 2 mg/mL o-phenylenediamine was added, and samples were incubated at room temperature until color emerged. The reaction was terminated immediately by adding 50 μL of 2 M H2SO4. Plate was read using a multiwell spectrophotometer (VERSAmax™, Molecular Devices, Sunnyvale, CA, USA) at 492 nm. The inhibitory rate (%) was calculated with the formula: [1 − (A492 treated/A492 control)] × 100%. IC50 values were calculated from the inhibitory curves.
(An ELISA detects its analyte on a solid surface through an enzyme-linked reagent.)

The target in test [2] is T2, EGFR WT (Homo sapiens, UniProt P00533).
T2 construct: Kinases domain of EGFR WT and EGFR L858R/T790M were expressed; made in house; host or cells: baculovirus expression system (Bac-to-Bac)
Briefly: ELISA-based EGFR-TK kinase assay, EGFR WT. The settings on record: 10 μmol/L ATP solution, 37°C 1 h, mean ± SD of at least two determinations, read-out: EGFR tyrosine kinase IC50, EGFR. It is filed as biochemical. The method, then: as §1

Entries after “also recorded” stand apart in the source; their conditions may differ.

The values that follow come from publication PMC5715404, “Design, Synthesis, and Evaluation of Ribose-Modified Anilinopyrimidine Derivatives as EGFR Tyrosine Kinase Inhibitors” (Frontiers in Chemistry, 2017).

T1 sequence (P00533 712-979 T790M/L858R limits assumed): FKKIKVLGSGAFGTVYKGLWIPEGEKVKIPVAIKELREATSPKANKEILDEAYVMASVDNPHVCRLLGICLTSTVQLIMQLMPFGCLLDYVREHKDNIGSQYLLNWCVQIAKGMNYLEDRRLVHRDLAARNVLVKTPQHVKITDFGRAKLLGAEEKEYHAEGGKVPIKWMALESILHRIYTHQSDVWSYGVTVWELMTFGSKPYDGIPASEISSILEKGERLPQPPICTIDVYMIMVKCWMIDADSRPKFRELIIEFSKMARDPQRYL
T2 sequence (P00533 712-979 limits assumed): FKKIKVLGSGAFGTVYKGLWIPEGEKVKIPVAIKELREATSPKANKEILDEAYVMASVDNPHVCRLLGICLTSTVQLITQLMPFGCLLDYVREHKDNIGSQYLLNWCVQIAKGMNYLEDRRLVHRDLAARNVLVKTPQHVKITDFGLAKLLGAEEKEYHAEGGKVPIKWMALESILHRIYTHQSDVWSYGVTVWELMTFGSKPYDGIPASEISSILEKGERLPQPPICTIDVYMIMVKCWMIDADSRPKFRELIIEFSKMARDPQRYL

`COc1cc(N2CCN(C)CC2)ccc1Nc1ncc(Cl)c(OC[C@H]2O[C@@H](N=[N+]=[N-])[C@H](O)[C@@H]2O)n1` [Compound 24]: the IC50 in test [1] and in test [2] was > 10 µM throughout.

In the case of `C=CC(=O)N[C@H]1O[C@H](CO)[C@@H](Oc2nc(Nc3ccc(N4CCN(C)CC4)cc3OC)ncc2Cl)[C@H]1O[Si](C)(C)C(C)(C)C` [Compound 1d, 3-O-[5-chloro-2-N-(2-methoxy-4-(4-methylpiperazin-1-yl)phenyl)pyrimidin-4-yl]-2-O-tert-butyldimethylsilyl-α-D-ribofuranosyl acrylamide], the “inhibitory activity against EGFR tyrosine kinases (in words)” value in test [1] was “no inhibitory activities; also recorded: no inhibitory activity”. Further, the IC50 in test [1] and in test [2] was > 10 µM in each case.

Consider `C=CC(=O)N[C@H]1[C@H]2OC(C)(C)O[C@H]2O[C@@H]1COc1nc(Nc2ccc(N3CCN(C)CC3)cc2OC)ncc1Cl` [Compound 1a, 1,2-O-isopropylidene-3-N-acryloyl-3-deoxy-5-O-[5-chloro-2-N-(2-methoxy-4-(4-methylpiperazin-1-yl)phenyl)pyrimidin-4-yl]-α-D-ribofuranoside], for which the “selectivity for EGFR L858R/T790M over WT EGFR (in words)” value in test [1] was “potent and specific inhibitory activity; also recorded: good selectivity”. In addition, the IC50 was 0.62 µM in test [1] and > 10 µM in test [2].

For `C=CC(=O)N[C@@H]1[C@@H](COc2nc(Nc3ccc(N4CCN(C)CC4)cc3OC)ncc2Cl)OC(O)[C@@H]1O` (stereo partly drawn) [Compound 1b, 3-N-acryloyl-3-deoxy-5-O-[5-chloro-2-N-(2-methoxy-4-(4-methylpiperazin-1-yl)phenyl)pyrimidin-4-yl]-D-ribofuranose], in test [1], the “selectivity for EGFR L858R/T790M over WT EGFR (in words)” value is listed as “specific inhibitory activity” and the IC50 amounted to 2.64 µM. Also, in test [2], the IC50 was > 10 µM.

For `C=CC(=O)NC1O[C@H](COc2nc(Nc3ccc(N4CCN(C)CC4)cc3OC)ncc2Cl)[C@@H](O)[C@H]1O` (stereo partly drawn) [Compound 1c, 5-O-[5-chloro-2-N-(2-methoxy-4-(4-methylpiperazin-1-yl)phenyl)pyrimidin-4-yl]-D-ribofuranosyl acrylamide], in test [1], the “inhibitory activity against EGFR tyrosine kinases (in words)” value is recorded as “no inhibitory activities; also recorded: no inhibitory activity” and the IC50 was > 10 µM. The IC50 in test [2] is > 10 µM.

For `COc1cc(N2CCN(C)CC2)ccc1Nc1ncc(Cl)c(O[C@H]2[C@@H](O[Si](C)(C)C(C)(C)C)[C@H](N=[N+]=[N-])O[C@@H]2CO)n1` [Compound 25], the IC50 in test [1] and in test [2] was > 10 µM each time.

`COc1cc(N2CCN(C)CC2)ccc1Nc1ncc(Cl)c(OC[C@H]2OC(O)[C@H](O)[C@@H]2O)n1` (stereo partly drawn) [Compound 26]: the IC50 in test [1] and in test [2] was > 10 µM in each case.
